Patent publication US12378202B2, “Tetrahydrobenzoazepinones and related analogs for inhibiting YAP/TAZ-TEAD” (THE KATHOLIEKE UNIVERSITEIT LEUVEN, priority 2021, dated 2025)
pEC50, pIC50: −log10 of the molar value.

Experiments:
Type in all cases: cell-based
[1] = test system: YAP/TAZ-TEAD transcription; experiment: Reporter gene assay (TEAD-responsive element luciferase reporter in Hek293T cells) for inhibition of YAP/TAZ-TEAD transcription; details: 24 hours incubation
Experimental: Hek293T cells are cultured in DMEM supplemented with 10% fetal bovine serum, Sodium pyruvate, Sodium bicarbonate, L-glutamine. The cells are harvested and transiently transfected with TEAD-responsive element luciferase reporter. Transfected cells are plated in 384-wells plate containing pre-diluted compounds. After 24 hours incubation at 37° C./5% CO2, assay plates were cooled down to RT and levelled to an equal volume per well, prior to the addition of 25 uL luciferase substrate SteadyLite (Perkin Elmer)/well. The plate was shaken for 10 min at 600 rpm, centrifuged for 1 min at 500 rpm and measured with an Envision reader (PerkinElmer). The amount of relative light units produced by the TEAD reporter is used to calculated percent of inhibition.
The percent of reporter inhibition was calculated in the presence of a positive control inhibitor (100% inhibition)versus a condition with the presence of the vehicle basal activity of the reporter (0% inhibition). The ability of a test compound to inhibit this activity was determined as:
Percentage inhibition=[1-((RLU determined in the presence of vehicle−RLU determined for sample with test compound present) divided by (RLU determined in the presence of vehicle−RLU determined for sample with positive control inhibitor))]*100
The activities of example compounds tested are depicted in Table 3. The activity ranges A, B and C refer to IC50 values in the reporter gene assay as follows: “A”: IC50<1 μM; “B”: 1 μM≤IC50≤20 μM and “C”: IC50>20 μM; NT=not tested.

NCI-H226 = experiment: Mesothelioma cell line proliferation assay (ATPlite), NCI-H226; details: Homo sapiens, 144 h; NCI-H226 mesothelioma cells, 6 days incubation, ATPlite cell viability
Experimental: (§1) Mesothelioma cell lines, NCI-H226 and NCI-H2052 (all sourced from the ATCC cell culture collection) are plated in 96-well plates (Corning® 96 Well White Polystyrene Microplate clear flat bottom, white polystyrene (TC-Treated)), at 1500 cells/well in full medium (RPMI 1640 ATCC modification with L-glutamine, HEPES, Phenol Red, Sodium Pyruvate, High glucose, Low sodium bicarbonate and 10% fetal bovine serum). Cells are incubated overnight at 37° C. in an incubator with 5% CO2. Then compounds, dissolved in DMSO, are added in dose-response. Cells are incubated with compound dilutions for another 6 days at 37° C. in an incubator with 5% CO2. Cell viability is quantitated using the ATPlite kit (Perkin-Elmer) and the luminescence is read-out using an Envision instrument (Perkin-Elmer). The amount of relative light units produced using the ATPlite kit is used to calculated percent of inhibition.
(§2) The activities of some example compounds are depicted in Table 4. The activity ranges A, B and C refer to EC50 values in the mesothelioma cell line proliferation assay as described as follows: “A”: EC50<1 μM; “B”: 1 μM≤EC50≤10 μM and “C”: EC50>10 μM; NT: not tested.

NCI-H2052 = experiment: Mesothelioma cell line proliferation assay (ATPlite), NCI-H2052; details: Homo sapiens, 144 h; NCI-H2052 mesothelioma cells, 6 days incubation, ATPlite cell viability
Experimental: as §1, §2

Compound	pIC50 ([1]; Homo sapiens, HEK-293T)	pIC50 [1]	pEC50 (NCI-H226)	pEC50 (NCI-H2052)
C=CC(=O)NC1CCc2ccccc2N(c2ccc(C(F)(F)F)cc2)C1 (single isomer, unassigned) [Cpd. No. 008-En1, (R)- or (S)-N-(1-(4-(trifluoromethyl)phenyl)-2,3,4,5-tetrahydro-1H-benzo[b]azepin-3-yl)acrylamide]	> 6.00			
C=CC(=O)NC1CCc2ccccc2N(c2ccc(C(F)(F)F)cc2)C1 (single isomer, unassigned) [Cpd. No. 008-En2, (R)- or (S)-N-(1-(4-(trifluoromethyl)phenyl)-2,3,4,5-tetrahydro-1H-benzo[b]azepin-3-yl)acrylamide]		> 6.00		
NC1CCc2ccccc2N(c2ccc(C(F)(F)F)cc2)C1 (stereo not drawn) [Cpd. No. 001, 1-(4-(trifluoromethyl)phenyl)-2,3,4,5-tetrahydro-1H-benzo[b]azepin-3-amine]	4.70 to 6.00			
O=C(O)CCNC1CCc2ccccc2N(c2ccc(C(F)(F)F)cc2)C1 (stereo not drawn) [Cpd. No. 006, 3-((1-(4-(trifluoromethyl)phenyl)-2,3,4,5-tetrahydro-1H-benzo[b]azepin-3-yl)amino)propanoic acid]	< 4.70			
C=CC(=O)NC1CCc2ccccc2N(c2ccc(C(F)(F)F)cc2)C1 (stereo not drawn) [Cpd. No. 008, N-(1-(4-(trifluoromethyl)phenyl)-2,3,4,5-tetrahydro-1H-benzo[b]azepin-3-yl)acrylamide]	4.70 to 6.00		> 6.00	> 6.00
CCC(=O)NC1CCc2ccccc2N(c2ccc(C(F)(F)F)cc2)C1 (stereo not drawn) [Cpd. No. 009, N-(1-(4-(trifluoromethyl)phenyl)-2,3,4,5-tetrahydro-1H-benzo[b]azepin-3-yl)propionamide]	4.70 to 6.00			
O=C1CCCN(c2ccc(C(F)(F)F)cc2)c2ccc(NCCO)cc21 [Cpd. No. 011, 7-((2-hydroxyethyl)amino)-1-(4-(trifluoromethyl)phenyl)-1,2,3,4-tetrahydro-5H-benzo[b]azepin-5-one]	4.70 to 6.00			
O=C1CCCN(c2ccc(C(F)(F)F)cc2)c2ccc(NCCCO)cc21 [Cpd. No. 012, 7-((3-hydroxypropyl)amino)-1-(4-(trifluoromethyl)phenyl)-1,2,3,4-tetrahydro-5H-benzo[b]azepin-5-one]	< 4.70			
C=CC(=O)NC1Cc2c(F)cccc2N(c2ccc(C(F)(F)F)cc2)C1=O (stereo not drawn) [Cpd. No. 014, N-(5-fluoro-2-oxo-1-(4-(trifluoromethyl)phenyl)-1,2,3,4-tetrahydroquinolin-3-yl)acrylamide]	> 6.00		> 6.00	> 6.00
C=CC(=O)NC1Cc2cnccc2N(c2ccc(C(F)(F)F)cc2)C1=O (stereo not drawn) [Cpd. No. 015, N-(2-oxo-1-(4-(trifluoromethyl)phenyl)-1,2,3,4-tetrahydro-1,6-naphthyridin-3-yl)acrylamide]	4.70 to 6.00			

More lines, now with the values ahead:

pIC50 ([1]; Homo sapiens, HEK-293T)	pIC50 [1]	pEC50 (NCI-H226)	pEC50 (NCI-H2052)	Compound
4.70 to 6.00				OCCNC1CCc2ccccc2N(c2ccc(C(F)(F)F)cc2)C1 (single isomer, unassigned) [Cpd. No. 003-En1, (R)- or (S)-2-((1-(4-(trifluoromethyl)phenyl)-2,3,4,5-tetrahydro-1H-benzo[b]azepin-3-yl)amino)ethan-1-ol]
	4.70 to 6.00			OCCNC1CCc2ccccc2N(c2ccc(C(F)(F)F)cc2)C1 (single isomer, unassigned) [Cpd. No. 003-En2, (R)- or (S)-2-((1-(4-(trifluoromethyl)phenyl)-2,3,4,5-tetrahydro-1H-benzo[b]azepin-3-yl)amino)ethan-1-ol]
< 4.70				NC1CCc2ccccc2N(c2ccc(C(F)(F)F)cc2)C1=O (stereo not drawn) [Cpd. No. 002, 3-amino-1-(4-(trifluoromethyl)phenyl)-1,3,4,5-tetrahydro-2H-benzo[b]azepin-2-one]
4.70 to 6.00		< 5.00	< 5.00	OCCNC1CCc2ccccc2N(c2ccc(C(F)(F)F)cc2)C1 (stereo not drawn) [Cpd. No. 003, 2-((1-(4-(trifluoromethyl)phenyl)-2,3,4,5-tetrahydro-1H-benzo[b]azepin-3-yl)amino)ethan-1-ol]
4.70 to 6.00				O=C1C(NCCO)CCc2ccccc2N1c1ccc(C(F)(F)F)cc1 (stereo not drawn) [Cpd. No. 004, 3-((2-hydroxyethyl)amino)-1-(4-(trifluoromethyl)phenyl)-1,3,4,5-tetrahydro-2H-benzo[b]azepin-2-one]
4.70 to 6.00				OCCCNC1CCc2ccccc2N(c2ccc(C(F)(F)F)cc2)C1 (stereo not drawn) [Cpd. No. 005, 3-((1-(4-(trifluoromethyl)phenyl)-2,3,4,5-tetrahydro-1H-benzo[b]azepin-3-yl)amino)propan-1-ol]
< 4.70				O=C1C(NCCCO)CCc2ccccc2N1c1ccc(C(F)(F)F)cc1 (stereo not drawn) [Cpd. No. 007, 3-((3-hydroxypropyl)amino)-1-(4-(trifluoromethyl)phenyl)-1,3,4,5-tetrahydro-2H-benzo[b]azepin-2-one]
< 4.70				C=CC(=O)NC1CCc2ccccc2N(c2ccc(C(F)(F)F)cc2)C1=O (stereo not drawn) [Cpd. No. 010, N-(2-oxo-1-(4-(trifluoromethyl)phenyl)-2,3,4,5-tetrahydro-1H-benzo[b]azepin-3-yl)acrylamide]
> 6.00		> 6.00	> 6.00	C=CC(=O)NC1Cc2ccccc2N(c2ccc(C(F)(F)F)cc2)C1=O (stereo not drawn) [Cpd. No. 013, N-(2-oxo-1-(4-(trifluoromethyl)phenyl)-1,2,3,4-tetrahydroquinolin-3-yl)acrylamide]
